{"source": "patent US11890287B2", "about": "“Therapeutic compounds and compositions for treating social disorders and substance use disorders” (Kinoxis Therapeutics Pty Ltd, priority 2015, dated 2024)", "key": {"OTR": {"target": "T1, OTR (Homo sapiens, UniProt P30559)", "T1 construct": "expressed in transfected cells; host or cells: HEK cells", "T1 sequence (P30559 whole entry)": "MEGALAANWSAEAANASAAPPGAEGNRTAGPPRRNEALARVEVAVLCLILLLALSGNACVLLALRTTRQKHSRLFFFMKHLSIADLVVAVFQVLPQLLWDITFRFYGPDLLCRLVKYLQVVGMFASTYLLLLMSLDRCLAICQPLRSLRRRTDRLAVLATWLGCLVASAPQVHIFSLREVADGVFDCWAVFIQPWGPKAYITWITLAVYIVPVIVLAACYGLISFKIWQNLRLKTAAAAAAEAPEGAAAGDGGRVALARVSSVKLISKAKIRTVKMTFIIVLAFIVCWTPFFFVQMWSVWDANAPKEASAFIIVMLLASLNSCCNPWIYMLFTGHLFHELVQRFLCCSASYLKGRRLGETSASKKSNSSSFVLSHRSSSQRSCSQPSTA", "assay": "IP1 signalling on OTR HEK cells", "assay_type": "cell-based"}, "[1]": {"assay": "24-hour pharmacokinetic study, intravenous route", "assay_type": "in vivo, male Sprague Dawley rats", "settings": "20 mg/kg IV; for Vd: read-out: Vz", "procedure": "A single intravenous 20 mg/kg (corresponding to ˜17.1 mg/kg expressed as the free base corrected for purity) bolus dose of SOC-1 test item formulated in Hartman's solution was administered to three adult male Sprague Dawley rats. A total of 10 blood samples were collected from each rat at time points ranging from pre-dose to 24 hours post-dose. The blood samples were subsequently processed to plasma and analysed for plasma concentrations of SOC-1 using a screening LC-MS/MS method (assay range=50-5000 ng/mL). Pharmacokinetic parameters were estimated from the plasma concentration versus time data by non-compartmental methods using Phoenix 64 WinNonlin® software.\nPrior to treatments the rats were subject to surgery to cannulate the jugular vein (for dose administration, IV) and femoral artery (for blood sample collection, IA) with exteriorisation of the cannulas per test facility SOPs. Following recovery from surgery the rats were transferred to a Culex system for dose administration and blood sampling (with both lines tended per test facility SOPs).\nThe intravenous treatments were administered via the jugular cannula with a dosing volume of 4.0 mL/kg on the day following surgery. The treatments were followed by ˜200 μL vehicle to ensure a full dose was delivered to the animals.\nBlood samples (˜250 μl) were collected in lithium heparin tubes from the IA cannula at the following time points: pre-dose, 2, 5, 10, 30, 60 minutes, 2, 4, 8 and 24 hours post-dose\nBlood samples were kept on ice immediately after collection to minimize degradation and centrifuged as soon as possible at approximately 4000×rcf for 10 min. Pre-dose samples were centrifuged separately prior to dosing. The plasma was then transferred to polypropylene tubes and stored frozen at −80° C.\nPlasma concentrations of SOC-1 were determined using a screening LC-MS/MS method with a following liquid/liquid extraction. Briefly, 50 μL aliquots of the test samples and calibration standards were mixed with 1 mL of hexane:dichloromethane (1:1) for 5 minutes following the addition of 10 μl of internal standard, then centrifuged and the organic phase decanted and dried under nitrogen. The samples were then reconstituted with 0.5 mL of 0.1% formic acid in 30% methanol in deionised water and 0.2 mL transferred to a 96 well plate. A 5 μL aliquot of this sample was then analysed using an ABSciex API 4000 MS/MS coupled to a Shimadzu Prominence HPLC. The HPLC gradients included 0.1% formic acid in deionised water (Mobile Phase A) and 0.1% formic acid in methanol (Mobile Phase B). The LC-MS/MS instrument settings are summarised in Appendix 2. The samples were analysed with calibrated samples (50 to 5000 ng/mL) and concentration data determined by back calculation from the standard curve.\nGroup mean±standard error values for plasma concentration versus time values were determined using Phoenix 64 WinNonlin software. The following pharmacokinetic parameters were also calculated by non-compartmental methods, using Phoenix 64 WinNonlin software: • Rsq—Coefficient of association for the terminal elimination phase (R2). • Lambda—Terminal elimination rate constant associated with the terminal (log-linear) portion of the curve (1/h). • T1/2—Terminal elimination half-life (h) • C0—Initial concentration at time 0 min (ng/mL) determined by back-extrapolating from the first two measured concentration values. • Tmax—Time to maximum plasma concentration following extravascular administration. • Cmax—Maximum plasma concentration following extravascular administration • AUClast—Area under the curve from the time of dosing (Dosing time, time 0 min) to the last measurable concentration (ng·h/mL). • AUCinf—AUC from Dosing time extrapolated to infinity, based on the last observed concentration (obs). (ng·h/mL). • AUC % Extrap—Percentage of AUCinf due to extrapolation from time of last measurable concentration to infinity. • Vz—Volume of distribution (L/kg). • Cl—Total body clearance (L/h/kg). […]"}, "[2]": {"settings": "male, Sprague Dawley, rat, in vivo, Mean, N 3"}, "[3]": {"settings": "male, Sprague Dawley, rat, plasma, iv, 20 mg/kg, individual rats"}}, "note": "“And” between values parts separate entries of the source, which are not always exact repeats. Equal entries are not always repeated. Where two headings read alike, the source gives them in different places.", "data": [{"smiles": "Cl.Cn1ncc2c1Nc1ccccc1NC2", "note": "[SOC-1]", "values": [{"measurement": "agonist, antagonist or positive allosteric modulator activity at OTR", "setting": "OTR", "result": "not an agonist or antagonist at OTRs, nor a positive allosteric modulator of the OTR"}, {"measurement": "tolerability, morbidity or mortality", "setting": "[1]", "result": "tolerated and there were no findings of morbidity or mortality"}, {"measurement": "Plasma SOC-1", "setting": "[1]; 2 minutes post-dose, individual rats #1-#3", "result": "12600 ng/mL and 16500 ng/mL"}, {"measurement": "Plasma SOC-1", "setting": "[1]; 5 minutes post-dose, individual rats #1-#3", "result": "13100 ng/mL and 12200 ng/mL"}, {"measurement": "Plasma SOC-1", "setting": "[1]; 10 minutes post-dose, individual rats #1-#3", "result": "10900 ng/mL and 11700 ng/mL"}, {"measurement": "Plasma SOC-1", "setting": "[1]; 30 minutes post-dose, individual rats #1-#3", "result": "8790 ng/mL and 8120 ng/mL"}, {"measurement": "Plasma SOC-1", "setting": "[1]; 1 hour (60 minutes) post-dose, individual rats #1-#3", "result": "6480 ng/mL and 6310 ng/mL"}, {"measurement": "Plasma SOC-1", "setting": "[1]; 2 hours post-dose, individual rats #1-#3", "result": "3610 ng/mL and 2980 ng/mL"}, {"measurement": "Plasma SOC-1", "setting": "[1]; 4 hours post-dose, individual rats #1-#3", "result": "115 ng/mL and 286 ng/mL and 97.3 ng/mL"}, {"measurement": "Plasma SOC-1", "setting": "[1]; 8 hours post-dose, individual rats #1-#3", "result": "BLOQ^a) (below lower limit of quantitation of 50 ng/mL)"}, {"measurement": "Plasma SOC-1", "setting": "[1]; 24 hours post-dose, individual rats #1-#3", "result": "BLOQ^a) (below lower limit of quantitation of 50 ng/mL)"}, {"measurement": "AUC % Extrap", "setting": "[1]; Mean, N 3", "result": 0.803, "unit": "%"}, {"measurement": "Lambda", "setting": "[1]; Mean, N 3", "result": 1.28, "unit": "h⁻¹"}, {"measurement": "AUC % Extrap", "setting": "[1]; individual rats", "result": "0.559% and 1.45% and 0.398%"}, {"measurement": "AUCinf", "setting": "[1]; individual rats", "result": "18400 ng·h/mL and 17000 ng·h/mL"}, {"measurement": "AUClast", "setting": "[1]; individual rats", "result": "18100 ng·h/mL and 17000 ng·h/mL"}, {"measurement": "C0", "setting": "[1]; individual rats", "result": "12600 ng/mL and 20100 ng/mL"}, {"measurement": "Cl", "setting": "[1]; individual rats", "result": "15.5 mL/min/kg and 16.7 mL/min/kg"}, {"measurement": "Lambda", "setting": "[1]; individual rats", "result": "1.33 h⁻¹ and 1.07 h⁻¹ and 1.44 h⁻¹"}, {"measurement": "T1/2", "setting": "[1]; individual rats", "result": "38.8 min and 29 min"}, {"measurement": "Vz", "setting": "[1]; individual rats", "result": "0.868 L/kg and 0.699 L/kg"}, {"measurement": "AUC(0-inf)", "setting": "[1]; [2]", "result": 17000, "unit": "ng·h/mL"}, {"measurement": "clearance", "setting": "[1]; [2]", "result": 16.8, "unit": "mL/min/kg"}, {"measurement": "half-life", "setting": "[1]; [2]", "result": 33, "unit": "min"}, {"measurement": "C0", "setting": "[1]; male, Sprague Dawley, rat, in vivo, Mean, N 3, read-out: C0", "result": 18200, "unit": "ng/mL"}, {"measurement": "Vd", "setting": "[1]; [2]", "result": 0.799, "unit": "L/kg"}, {"measurement": "concentration at 2 min", "setting": "[1]; male, Sprague Dawley, rat, plasma, intravenous, 20 mg/kg, 2 minutes post-dose, individual rats #1-#3, read-out: Plasma SOC-1", "result": 17200, "unit": "ng/mL"}, {"measurement": "concentration at 5 min", "setting": "[1]; male, Sprague Dawley, rat, plasma, intravenous, 20 mg/kg, 5 minutes post-dose, individual rats #1-#3, read-out: Plasma SOC-1", "result": 11900, "unit": "ng/mL"}, {"measurement": "concentration at 10 min", "setting": "[1]; male, Sprague Dawley, rat, plasma, intravenous, 20 mg/kg, 10 minutes post-dose, individual rats #1-#3, read-out: Plasma SOC-1", "result": 12800, "unit": "ng/mL"}, {"measurement": "concentration at 30 min", "setting": "[1]; male, Sprague Dawley, rat, plasma, intravenous, 20 mg/kg, 30 minutes post-dose, individual rats #1-#3, read-out: Plasma SOC-1", "result": 7120, "unit": "ng/mL"}, {"measurement": "concentration at 1 h", "setting": "[1]; male, Sprague Dawley, rat, plasma, intravenous, 20 mg/kg, 1 hour (60 minutes) post-dose, individual rats #1-#3, read-out: Plasma SOC-1", "result": 5720, "unit": "ng/mL"}, {"measurement": "concentration at 2 h", "setting": "[1]; male, Sprague Dawley, rat, plasma, intravenous, 20 mg/kg, 2 hours post-dose, individual rats #1-#3, read-out: Plasma SOC-1", "result": 2310, "unit": "ng/mL"}, {"measurement": "AUC(0-t)", "setting": "[1]; male, Sprague Dawley, rat, plasma, iv, 20 mg/kg, Mean, N 3", "result": 16800, "unit": "ng·h/mL"}, {"measurement": "AUC(0-inf)", "setting": "[1]; [3]", "result": 15500, "unit": "ng·h/mL"}, {"measurement": "AUC(0-t)", "setting": "[1]; [3]", "result": 15400, "unit": "ng·h/mL"}, {"measurement": "clearance", "setting": "[1]; [3]", "result": 18.5, "unit": "mL/min/kg"}, {"measurement": "half-life", "setting": "[1]; [3]", "result": 31.3, "unit": "min"}, {"measurement": "C0", "setting": "[1]; male, Sprague Dawley, rat, plasma, iv, 20 mg/kg, individual rats, read-out: C0", "result": 21900, "unit": "ng/mL"}, {"measurement": "Vd", "setting": "[1]; [3]", "result": 0.831, "unit": "L/kg"}]}]}
